Source: patent US20250268923A1, “APPLICATION OF TETRACYCLINE COMPOUND IN TREATMENT OF TUMOR” (NANJING SHIJIANG MEDICINE TECHNOLOGY CO., LTD, priority 2021, published 2025)

Columns and labels:
Assay type in all cases: cell-based
[1] = test system: NCI-H82 (human small cell lung cancer cell); assay: Cell viability (CellTiter-Glo), NCI-H82; conditions: sensitive group, 3-4 days of culture, n=3, read-out: Tigecycline IC50
Experimental: (§1) The inhibitory effect of tigecycline on various tumor cell lines was detected using cell activity detection reagent.
(§2) Cell viability was detected using the Promega CellTiter-Glo kit, cell viability was determined by directly measuring intracellular ATP content. In the experiment, the IC50 value of tigecycline on various tumor cell lines was determined.
(§3) Each tumor cell was cultured separately in relevant medium (+p/s), and was incubated for 3 h, then the gradient diluted tigecycline was added. After 3-4 days of culture, the relevant IC50 (50% inhibiting concentration) was measured (n=3). The name, source and culture conditions of each tumor cell line were as follows:
Cell line NCI-H82 (ATCC, No. HTB-175) was cultured in 10% fetal bovine serum-containing RPMI1640 medium (+P/S).

[2] = test system: G-401 (human renal carcinoma Wilms cell); assay: Cell viability (CellTiter-Glo), G-401; conditions: sensitive group, 3-4 days of culture, n=3, read-out: Tigecycline IC50
Experimental: as §1, §2, §3
Cell line G-401 (ATCC, No. CRL-1441) was cultured in 10% fetal bovine serum-containing McCoy's 5a medium (+P/S).

[3] = test system: MDA-MB-453 (breast cancer cell); assay: Cell viability (CellTiter-Glo), MDA-MB-453; conditions: Homo sapiens, sensitive group, 3-4 days of culture, n=3, read-out: Tigecycline IC50
Experimental: as §1, §2, §3
Cell line MDA-MB-453 (ATCC, No. HTB-131) was cultured in 10% fetal bovine serum-containing Leibovitz's L-15 medium (+P/S).

[4] = test system: SW48 (human colon adenocarcinoma cell); assay: Cell viability (CellTiter-Glo), SW48; conditions: sensitive group, 3-4 days of culture, n=3, read-out: Tigecycline IC50
Experimental: as §1, §2, §3
Cell line SW48 (ATCC, No. CCL-231) was cultured in 10% fetal bovine serum-containing Leibovitz's L-15 medium (+P/S).

[5] = test system: WSU-DLCL2 (human diffuse large B-cell lymphoma); assay: Cell viability (CellTiter-Glo), WSU-DLCL2; conditions: WSUDLCL2, sensitive group, 3-4 days of culture, n=3, read-out: Tigecycline IC50
Experimental: as §1, §2, §3
Cell line WSU-DLCL2 (DSMZ, No. ACC-575) was cultured in 10% fetal bovine serum-containing RPMI1640 medium (+P/S).

[6] = test system: CFPAC-1 (human pancreatic cancer cell); assay: Cell viability (CellTiter-Glo), CFPAC-1; conditions: insensitive group, 3-4 days of culture, n=3, read-out: Tigecycline IC50
Experimental: as §1, §2, §3
Cell line CFPAC-1 (ATCC, No. CRL-1918) was cultured in 10% fetal bovine serum-containing IMDM medium (+P/S).

[7] = test system: 786-O (clear cell renal cell adenocarcinoma cell); assay: Cell viability (CellTiter-Glo), 786-O; conditions: Homo sapiens, 786-0, insensitive group, 3-4 days of culture, n=3, read-out: Tigecycline IC50
Experimental: as §1, §2, §3
Cell line 786-0 (ATCC, No. CRL-1932) was cultured in 10% fetal bovine serum-containing RPMI1640 medium (+P/S).

[8] = test system: GB-1 (human glioblastoma cell); assay: Cell viability (CellTiter-Glo), GB-1; conditions: insensitive group, 3-4 days of culture, n=3, read-out: Tigecycline IC50
Experimental: as §1, §2, §3
Cell line GB-1 (JCRB, No. IFO050489) was cultured in 10% fetal bovine serum-containing DMEM medium (+P/S).

[9] = test system: SF-126 (human glioblastoma multiforme cell); assay: Cell viability (CellTiter-Glo), SF-126; conditions: insensitive group, 3-4 days of culture, n=3, read-out: Tigecycline IC50
Experimental: as §1, §2, §3
Cell line SF126 (JCRB. No. IFO50286) was cultured in 10% fetal bovine serum-containing EMEM medium (+P/S).

[10] = test system: NCI-H82 (Con) cell (transfected with empty virus vector); assay: Cell viability (CellTiter-Glo), control NCI-H82 (Con); conditions: Homo sapiens, n=3, read-out: IC50 value of tigecycline on control NCI-H82 cell (NCI-H82 (Con))
Excerpt: (§4) The NNMT protein-overexpressing NCI-H82 cell (NCI-H82 (ov-NNMT)) was obtained by inserting the NNMT gene into NCI-H82 cell using a viral vector. The control NCI-H82 cell (NCI-H82 (Con)) was obtained by transfecting NCI-H82 cell with empty virus vector without carrying NNMT gene.
(§5) The expressing level of NNMT protein in control NCI-H82 cell (NCI-H82 (Con)) and NNMT protein-overexpressing NCI-H82 cell (NCI-H82 (ov-NNMT)) was detected using Western Blot assay (as shown in FIG. 7), it could be seen from FIG. 7 that the NNMT protein in NCI-H82 (ov-NNMT) cell was overexpressed compared with the expression level of NNMT protein in NCI-H82 (Con) cell.
(§6) The IC50 value of tigecycline on control NCI-H82 cell (NCI-H82 (Con)) and NNMT protein-overexpressing NCI-H82 cell (NCI-H82 (ov-NNMT)) was determined using Promega CellTiter-Glo kit which detected cell viability by directly measuring intracellular ATP content (n=3), the experiment result was shown in Table 4 below: […]

[11] = test system: NCI-H82 (ov-NNMT) cell (NNMT protein-overexpressing); assay: Cell viability (CellTiter-Glo), NNMT-overexpressing NCI-H82; conditions: Homo sapiens, NNMT gene inserted by viral vector, n=3, read-out: IC50 value of tigecycline on NNMT protein-overexpressing NCI-H82 cell (NCI-H82 (ov-NNMT))
Excerpt: as §4, §5, §6

SMILES: CN(C)c1cc(NC(=O)CNC(C)(C)C)c(O)c2c1C[C@H]1C[C@H]3[C@H](N(C)C)C(O)=C(C(N)=O)C(=O)[C@@]3(O)C(O)=C1C2=O [Tigecycline, tigecycline]
- IC50 [1]: 0.79 µM
- IC50 [2]: 4.04 µM
- IC50 [3]: 5.05 µM
- IC50 [4]: 6.31 µM
- IC50 [5]: 1.36 µM
- IC50 [6]: 24.8 µM
- IC50 [7]: 26.9 µM
- IC50 [8]: 18.5 µM
- IC50 [9]: 26.3 µM
- IC50 [10]: 0.75 µM
- IC50 [11]: 2.31 µM
